Results on 11 compounds are retold here after ChEMBL document CHEMBL5335816, “3-Amino-5,6,7,8-tetrahydrothieno[2,3-b]quinoline-2-carbonitrile: A fluorescent molecule that induces differentiation in PC12 cells” (Bioorg Med Chem, 2024).

The structures appear in SMILES notation. Activity calls are given as the source filed them. No cut-off for these calls is given here.

Series [1] has as its system PC-12. Nature of the series: Neuritogenic activity in rat PC12 cells assessed as induction of neural differentiation at 5 to 10 uM incubated for 96 hrs by microscopic analysis. It is filed as functional, cell-based. Particulars: dose 5-10 µM.
The subject of series [2] is PC-12. Nature of the series: Neuritogenic activity in rat PC12 cells assessed as induction of neural differentiation incubated for 96 hrs by microscopic analysis. In kind it is functional, cell-based. Particulars: dose > 5.0 µM.
Series [3] in a line: Drug uptake in rat PC12 cells by HPLC analysis. It is filed as ADME, cell-based. As to conditions: pc-12.
Series [4] is described as follows: Drug metabolism in rat PC12 cells assessed as formation of 3-amino-5,6,7,8-tetrahydrothieno[2,3-b]quinoline-2-carbonitrile metabolite by HPLC analysis. In kind it is ADME, cell-based. Particulars: pc-12.
The nature of series [5]: Drug uptake in rat PC12 cells by fluorescence based assay. It is filed as ADME, cell-based. As to conditions: pc-12.
A short description of series [6]: Drug metabolism in rat PC12 cells assessed as formation of 3-amino-5,6,7,8-tetrahydrothieno[2,3-b]quinoline-2-carbonitrile metabolite by fluorescence based assay. It is filed as ADME, cell-based. As to conditions: pc-12.
The subject of series [7] is PC-12. In words: Induction of neural differentiation in rat PC12 cells assessed as increase in Tuj-1 expression at 10 uM incubated for 96 hrs by immunofluorescence staining based assay. In kind it is functional, cell-based.
Series [8] in a line: Fluorescent property of compound in toluene assessed as wavelength of excitation. In kind it is physicochemical.
A short description of series [9]: Fluorescent property of compound in chloroform as wavelength of excitation. In kind it is physicochemical.
The nature of series [10]: Fluorescent property of compound in acetonitrile assessed as wavelength of excitation. It is filed as physicochemical.
Series [11] is described as follows: Fluorescent property of compound in DMSO assessed as wavelength of excitation. In kind it is physicochemical.
Series [12] in a line: Fluorescent property of compound in methanol assessed as wavelength of excitation. It is filed as physicochemical.
Series [13] in a line: Fluorescent property of compound in toluene assessed as wavelength of emission. In kind it is physicochemical.
A short description of series [14]: Fluorescent property of compound in chloroform assessed as wavelength of emission. In kind it is physicochemical.
A short description of series [15]: Fluorescent property of compound in acetonitrile assessed as wavelength of emission. In kind it is physicochemical.
Series [16] is described as follows: Fluorescent property of compound in DMSO assessed as wavelength of emission. In kind it is physicochemical.
The nature of series [17]: Fluorescent property of compound in methanol assessed as wavelength of emission. It is filed as physicochemical.
Series [18] has as its system PC-12. In words: Neuritogenic activity in NGF-insensitive rat PC12 cells assessed as fold increase in induction of neural differentiation at 20 uM incubated for 96 hrs by microscopic analysis relative to control. In kind it is functional.
Series [19] can be described thus: Drug uptake in cytoplasm of rat PC12 cells incubated for 24 hrs by fluorescence staining based microscopy. It is filed as ADME, subcellular. As to conditions: pc12, 24 h.
The nature of series [20]: Drug uptake in rat PC12 cells at 20 uM incubated upto 2 hrs by HPLC analysis. As to conditions: pc-12, 2 h. In kind it is ADME, cell-based.

Turning to `CC(=O)Nc1c(C#N)sc2nc3c(cc12)CCCC3`, the result in the series on PC-12 [1] was inactive.
Same read-out and setting: the value for `NC(=O)c1sc2nc3c(cc2c1N)CCCC3` was “inactive”; that for `N#Cc1sc2nc3c(cc2c1N)CCC3` was “Active”; that for `N#Cc1sc2nc(N3CCCCC3)c3c(c2c1N)CCCC3` was “inactive”.
With `CCOC(=O)c1sc2nc3c(cc2c1N)CCCC3`, the result with PC-12 [1] was inactive.
As for `N#Cc1sc2nc3c(cc2c1NC=O)CCCC3`, the result with PC-12 [1] and in the series with PC-12 [7] was Active. The Activity entry in the series with PC-12 [2] is “Dose-Dependent Effect”. Further, the Drug uptake result in [3] and in series [5] was “Active” in each case. Besides, the Drug metabolism entry in series [4] and in series [6] was “Metabolite_Detected” each time.
`N#Cc1sc2nc(N3CCOCC3)c3c(c2c1N)CCCC3`: the result with PC-12 [1] was inactive.
Still for that read-out and setting: to `CC(=O)c1sc2nc3c(cc2c1N)CCCC3` belongs “inactive”; to `N#Cc1sc2ncccc2c1N`, “inactive”.
As for `N#Cc1sc2ncc3c(c2c1N)CCCC3`, the outcome in the series on PC-12 [1] was Active.
On to `N#Cc1sc2nc3c(cc2c1N)CCCC3`, for which the outcome with PC-12 [1] and in the series with PC-12 [7] was Active. In addition, the Activity result in the series on PC-12 [2] was “Dose-Dependent Effect”; in series [8] it was 343 nm; in series [9], 343 nm; in [10] it was 345 nm; in [11], 359 nm; in series [12], 356 nm. Further, the Activity turned out to be 434 nm in [13]; 453 nm in series [14]; 460 nm in series [15]; 478 nm in series [16]; 485 nm in [17]. The “fold change (FC)” value with PC-12 [18] amounted to 20. The Drug uptake entry in series [19] and in series [20] was “Active” in each case.
